Reference: patent US20260021131A1, “USE OF MI[…] IN COMBINATION WITH CA[…] TREATING NASOPHARYNGEAL CARCINOMA” (CSPC ZHONGQI PHARMACEUTICAL TECHNOLOGY (SHIJIAZHUANG) CO., …, priority 2022, published 2026)

Assays:
[1] = tested on: subjects with recurrent and/or metastatic nasopharyngeal carcinoma who have failed platinum-based therapy; experiment: Phase III clinical study of mitoxantrone hydrochloride liposome injection combined with capecitabine versus capecitabine monotherapy: efficacy evaluation (best overall response, RECIST 1.1); format: in vivo, human; set-up: key to Best overall response: complete response (CR); partial response (PR); stable disease (SD); disease progression (PD)
Description: (§1) Example 1. A Randomized, Open-Label, Positive-Controlled, Multi-center Phase III Clinical Study of Mitoxantrone Hydrochloride Liposome Injection Combined with Capecitabine Versus Capecitabine Monotherapy in Subjects with Recurrent and/or Metastatic Nasopharyngeal Carcinoma Who Have Failed Platinum-Based Therapy.
This study is a randomized, open-label, positive-controlled, multicenter phase III clinical study whose objective is to evaluate the efficacy and safety of mitoxantrone hydrochloride liposome injection combined with capecitabine versus capecitabine monotherapy in subjects with recurrent and/or metastatic nasopharyngeal carcinoma.
(§2) Subjects with recurrent and/or metastatic nasopharyngeal carcinoma who have failed first-line or second-line platinum-based therapy will be enrolled. After screening, eligible subjects are stratified-randomized (stratification factors: (1) ECOG score: 0 vs. 1; (2) whether a liver metastasis is present: any metastasis is present vs. all metastases are not present; (3) gender: male vs. female) in a 1:1 ratio into an experimental group and a control group.
(§3) The experimental group receives treatment with mitoxantrone hydrochloride liposome injection (20 mg/m^2) combined with capecitabine (1000 mg/m^2, twice daily), with every 3 weeks as a treatment cycle. The mitoxantrone hydrochloride liposome is administered on day 1 of each cycle, and capecitabine is administered on days 1 to 14. After 8 cycles of treatment with the mitoxantrone hydrochloride liposome, the investigator will assess the patient's risk-benefit ratio to determine whether to continue treatment until disease progression or intolerance, and capecitabine monotherapy as maintenance treatment. The control group receives capecitabine monotherapy, with every 3 weeks as a treatment cycle. Capecitabine monotherapy is administered on days 1 to 14 of each cycle. Sparse blood collection is conducted for all subjects in the experimental group.
During the study, the Independent Data Monitoring Committee (IDMC) will conduct safety assessments after two cycles of treatment for the first 40 subjects enrolled (about 20 per group) and throughout the study. Enrollment will continue during the safety assessment period. All subjects will be treated until disease progression according to the RECIST1.1 criteria, intolerable toxicity, withdrawal of informed consent, initiation of new anti-tumor therapy, loss to follow-up, death, or end of study, whichever occurs first. If the subject has no more treatment options after the investigator first determines that the subject has experienced disease progression, and the investigator determines that the subject can continue to benefit from the trial treatment, the subject may continue to receive the trial treatment in this trial until disease progression as assessed by the IRC or the investigator determines that the subject no longer benefits. […]

[2] = tested on: subjects with recurrent and/or metastatic nasopharyngeal carcinoma who have failed platinum-based therapy; format: in vivo, human
Description: as §1, §2, §3
During the study, the Independent Data Monitoring Committee (IDMC) will conduct safety assessments after two cycles of treatment for the first 40 subjects enrolled (about 20 per group) and throughout the study. Enrollment will continue during the safety assessment period. All subjects will be treated until disease progression according to the RECIST1.1 criteria, intolerable toxicity, withdrawal of informed consent, initiation of new anti-tumor therapy, loss to follow-up, death, or end of study, whichever occurs first. If the subject has no more treatment options after the investigator first determines that the subject has experienced disease progression, and the investigator determines that the subject can continue to benefit from the trial treatment, the subject may continue to receive the trial treatment in this trial until disease progression as assessed by the IRC or the investigator determines that the subject no longer benefits.
• Objective response rate (ORR), disease control rate (DCR), and duration of response (DOR) as assessed by the investigator and the IRC • Progression-free survival (PFS) as assessed by the investigator • Frequency and severity of AEs (NCI CTCAE 5.0); changes in vital signs, physical examinations, electrocardiograms, and laboratory findings • Total mitoxantrone and free mitoxantrone plasma concentrations. • Note: The abbreviations described above have the following meanings: • PFS: progression-free survival, defined as the time between the initial treatment of study drug and the date of disease progression (PD) or death, whichever occurs first. • OS: overall survival, defined as the time from the initial treatment of the study drug to death from any cause. • ORR: objective response rate, defined as the proportion of subjects achieving complete response (CR) and partial response (PR). • DCR: disease control rate, defined as the proportion of subjects achieving complete response (CR), partial response (PR), and stable disease (SD). • DOR: duration of response, defined as the time from the first assessment of CR or PR to the first assessment of PD or death from any cause.

[3] = subjects evaluated for BOR (9 experimental group, 5 control group), by Jul. 31, 2023

CCCCCOC(=O)Nc1nc(=O)n([C@@H]2O[C@H](C)[C@@H](O)[C@H]2O)cc1F [control group, capecitabine]
Best overall response ([1]; subject S01005, ECOG 0, 1 line received, metastasis liver and lung): SD | Best overall response ([1]; subject S13001, ECOG 1, 1 line received, metastasis liver, spleen, and bone): PD | Best overall response ([1]; subject S14001, ECOG 1, 2 lines received, metastasis liver and bone): PD | Best overall response ([1]; subject S24001, ECOG 1, 2 lines received, metastasis bone): PR | Best overall response ([1]; subject S32001, ECOG 1, 1 line received, metastasis liver): PD | Best overall response (BOR): number of evaluated subjects with PD [1, 3]: three | Best overall response (BOR): number of evaluated subjects with PR [1, 3]: one | Best overall response (BOR): number of evaluated subjects with SD [1, 3]: one | Best overall response (BOR): percentage of evaluated subjects with PD [1, 3]: 60% | Best overall response (BOR): percentage of evaluated subjects with PR [1, 3]: 20% | Best overall response (BOR): percentage of evaluated subjects with SD [1, 3]: 20% | SAE: Acute epiglottitis ([2]; both, human, in vivo): 0 n (%) | SAE: Anemia ([2]; both, human, in vivo): 0 n (%) | SAE: Bacterial pneumonia ([2]; both, human, in vivo): 1 (3.3%) n (%) | SAE: Cancer pain ([2]; both, human, in vivo): 0 n (%) | SAE: Dysphagia ([2]; both, human, in vivo): 1 (3.3%) n (%) | SAE: General fatigue ([2]; both, human, in vivo): 0 n (%) | SAE: Hypokalemia ([2]; both, human, in vivo): 0 n (%) | SAE: Hyponatremia ([2]; both, human, in vivo): 0 n (%) | SAE: Neutrophil count decreased ([2]; both, human, in vivo): 0 n (%) | SAE: Oralmucositis ([2]; both, human, in vivo): 1 (3.3%) n (%) | SAE: Platelet count decreased ([2]; both, human, in vivo): 0 n (%) | SAE: Post-cardiac arrest resuscitation syndrome ([2]; both, human, in vivo): 1 (3.3%) n (%) | SAE: Posterior-circulation ischemia ([2]; both, human, in vivo): 1 (3.3%) n (%) | SAE: Pulmonary infection ([2]; both, human, in vivo): 0 n (%) | SAE: Severe pneumonia ([2]; both, human, in vivo): 1 (3.3%) n (%) | SAE: Sinusitis ([2]; both, human, in vivo): 0 n (%) | SAE: Upper airway obstruction ([2]; both, human, in vivo): 0 n (%) | SAE: White blood cell count decreased ([2]; both, human, in vivo): 0 n (%) | Subjects who experienced serious adverse events (SAEs), total ([2]; both, human, in vivo): 3 subjects | SAE: Death from unknown cause ([2]; experimental group N = 32, control group N = 30): 1 (3.3%) n (%) | Subjects who died (end of the study) ([2]; up to Jul. 31, 2023, 32 subjects experimental group, 30 subjects control group): two
